What was measured:
ZIC5 protein [1] = target: T1, ZIC5 protein (Homo sapiens, UniProt Q96T25); assay: Western blotting of ZIC5 protein/GAPDH in A375 cells (none overexpressed); assay type: cell-based; details: 0, 0.1, 0.5 or 1 μM; 48 hours
T1 sequence (Q96T25 1-639): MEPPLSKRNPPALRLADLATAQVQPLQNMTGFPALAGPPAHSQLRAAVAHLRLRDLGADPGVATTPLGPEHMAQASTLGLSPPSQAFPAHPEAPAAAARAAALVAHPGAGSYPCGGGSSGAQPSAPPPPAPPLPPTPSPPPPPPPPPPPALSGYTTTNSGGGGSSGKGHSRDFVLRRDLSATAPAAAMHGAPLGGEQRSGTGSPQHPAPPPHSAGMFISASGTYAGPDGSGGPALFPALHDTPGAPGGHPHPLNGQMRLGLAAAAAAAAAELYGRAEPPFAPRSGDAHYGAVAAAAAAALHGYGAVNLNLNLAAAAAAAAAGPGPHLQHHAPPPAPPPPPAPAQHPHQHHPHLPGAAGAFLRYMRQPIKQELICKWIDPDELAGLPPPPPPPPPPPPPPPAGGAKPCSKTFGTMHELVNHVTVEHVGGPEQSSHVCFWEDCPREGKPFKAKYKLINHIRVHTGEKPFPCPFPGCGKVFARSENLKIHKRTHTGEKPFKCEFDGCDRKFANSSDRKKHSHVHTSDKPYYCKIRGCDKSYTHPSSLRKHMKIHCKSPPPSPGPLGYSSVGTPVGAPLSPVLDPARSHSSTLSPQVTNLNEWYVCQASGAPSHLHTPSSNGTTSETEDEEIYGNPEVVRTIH
Experimental: Regarding the compound (T-1) and the compound (T-2), the effect on the amount of the intracellular ZIC5 protein was investigated according to the Western blotting method. Specifically, A375 cells (none was overexpressed therein) were subjected to the addition of the compound (T-1) or the compound (T-2) so that the concentration thereof was 0, 0.1, 0.5, or 1 μM, and the cells were cultured for 48 hours. The cells after being cultured were recovered, and Western blotting was carried out using an anti-ZIC5 antibody and an anti-GAPDH antibody. The amount of each protein was quantified from a density of a band in the Western blotting image.

[2] = system: ZIC5 non-expressing normal human melanocyte cell (NHM); assay: apoptosis induction rate after compound treatment; assay type: cell-based; design: dose or concentration left out as unconfirmed; details: 48 hours
Experimental: (§1) The apoptosis induction rate (%) was measured as follows. First, a CellEvent Caspase-3/7 Green Detection Reagent (manufactured by Invitrogen Corporation) and Hoechst 33342 were added to each kind of cell, followed by incubation for 40 minutes. Next, the staining state of the cells after incubation was analyzed by using a DAPI filter and an FITC filter of an imaging cytometer “IN Cell Analyzer 2000” (manufactured by GE Healthcare). The proportion (%) of Caspase-3/7 active cells (CellEvent Caspase-3/7 Green Detection Reagent positive cells) with respect to all DAPI-stained cells (DAPI positive cells) was determined by “IN Cell Analyzer Workstation 3.7” (manufactured by GE Healthcare), and this was defined as the apoptosis induction rate (%). The statistical difference was determined according to the Tukey's multiple comparison test (n=3, *p<0.05, **p<0.01, ***p<0.001).
(§2) A total of 7 kinds of cells of 2 kinds of vemurafenib-resistant lines derived from human melanoma (an A375vemR line and an HT144vemR line), 2 kinds of ZIC5 high-expressing melanoma cell lines (an A375 line and an HT144 line), 2 kinds of ZIC5 low-expressing melanoma cell lines (a Colo829 line and an SKmel28 line), and a ZIC5 non-expressing normal human melanocyte cell (NHM) were treated with the compound (T-1) or compound (T-2), and regarding the cells that had been subsequently cultured for 48 hours, the apoptosis induction rate (%) was determined in the same manner as in Example 1. […]

[3] = system: vemurafenib-resistant lines derived from human melanoma (A375vemR line, HT144vemR line); assay: apoptosis induction rate after compound treatment; assay type: cell-based; design: dose or concentration left out as unconfirmed; details: 48 hours
Experimental: as §1, §2

[4] = system: ZIC5 high-expressing melanoma cell lines (A375 line, HT144 line); assay: apoptosis induction rate after compound treatment; assay type: cell-based, human; design: dose or concentration left out as unconfirmed; details: 48 hours
Experimental: as §1, §2

[5] = system: ZIC5 low-expressing melanoma cell lines (Colo829 line, SKmel28 line); assay: apoptosis induction rate after compound treatment; assay type: cell-based, human; design: dose or concentration left out as unconfirmed; details: 48 hours
Experimental: as §1, §2

A375 cells = assay: relative cell number after compound then BRAF inhibitor vemurafenib; assay type: cell-based, human; details: 0.5 μM T-1 or 50 nM T-2 for 48 hours, then vemurafenib 0.1 μM for 72 hours
Experimental: Specifically, 0.5 μM of the compound (T-1) or 50 nM of the compound (T-2) was added to A375 cells, culturing was carried out for 48 hours, and then vemurafenib was added thereto a concentration of 0.1 μM, and culturing was further carried out for 72 hours. After the culturing, cell nuclei were stained with Hoechst to count the number of cells. The number of cells of the A375 cells cultured without adding any compound was set to 1, and the relative cell number of each kind of cell was determined.

A375 melanoma cells = assay: relative cell number in cells transfected with ZIC5 expression plasmid (Z5) or empty vector (C); assay type: cell-based, human; details: 0.1 or 0.5 μM T-1, 10 nM T-2; 4 days; Z5 versus empty vector
Experimental: Specifically, a ZIC5 expression plasmid (Z5) or an empty vector (C) was introduced into A375 melanoma cells by transfection, and cells into which each of the plasmids had been introduced were selected. Next, these cells were subjected to the addition of 0.1 μM or 0.5 μM of the compound (T-1) or 10 nM of the compound (T-2) and cultured for 4 days. After the culturing, cell nuclei were stained with Hoechst, and the number of cells was counted with an imaging cytometer “IN Cell Analyzer 2000”. The number of cells, into which an empty vector had been introduced and which had not been subjected to the compound treatment, was set to 1, and the relative cell number of each kind of cell was determined. […] In the figure, “C” is for cells into which the empty vector has been introduced, and “Z5” is for cells into which the ZIC5 expression plasmid has been introduced.

ZIC5 protein [6] = target: T1, ZIC5 protein; assay: secondary screening: ZIC5 protein quantified by anti-ZIC5 immunostaining and imaging cytometer in A375 cells overexpressing ZIC5; details: A-375, read-out: ZIC5 Protein Amount (Relative Value);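 further: compounds added at 0.1, 1, 5 or 10 µM to A375 cells overexpressing ZIC5 without a fusion tag, cells fixed the next day, ND means cells died before measurement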
Experimental: In the secondary screening, A375 cells overexpressing the ZIC5 protein (without a fusion protein) were subjected to the addition of the primary hit compound to a final concentration of 0.1 μM, 1 μM, 5 μM, or 10 μM and cultured, and then the cells were fixed on the next day. The fixed cells were subjected to staining by using an anti-ZIC5 antibody (clone: GTX104840) and an Alexa Fluor 568-anti-rabbit IgG antibody as a secondary antibody, and the amount of the ZIC5 protein was quantified using the imaging cytometer.

[7] = system: pancreatic cancer cell lines (AsPC-1, Panc-1, MiaPaca-2) and bile duct cancer cell line (RBE); assay: apoptosis induction rate with gemcitabine after siRNA transfection; assay type: cell-based; details: gemcitabine 0.1 μM, 48 hours
Experimental: as §1
Next, each kind of cell was introduced by transfection with siNeg and siZIC5 listed in Table 2 and cultured for 24 hours. Then, gemcitabine, which is a standard therapeutic drug for pancreatic cancer and bile duct cancer, was added thereto, the culture was further carried out for 48 hours, and then the apoptosis induction rate (%) was investigated.

| Compound | remaining activity at 0.1 µM (ZIC5 protein [6]) | remaining activity at 1 µM (ZIC5 protein [6]) | remaining activity at 5 µM (ZIC5 protein [6]) | also measured |
| --- | --- | --- | --- | --- |
| O=C1C=C2C(=CCOC2O)O1 (stereo not drawn) [Compound T-1] | 83.4% | 76.7% | – | relative amount of the ZIC5 protein ([amount of ZIC5 protein]/[amount of GAPDH protein]) (ZIC5 protein [1]): reduced depending on the concentrations; apoptosis induction [2]: did not induce apoptosis; apoptosis induction [3]: induced apoptosis; apoptosis induction [4]: induced apoptosis; apoptosis induction ([5]; both ZIC5 low-expressing lines): did not induce apoptosis; relative cell number in combination with vemurafenib (A375 cells): synergistically reduce the number of cells; apoptosis induction and suppression of cancer cell proliferation in ZIC5-overexpressing cells (Z5) (A375 melanoma cells): restored |
| COc1cc(O)c2c(c1)/C=C/C[C@H](O)[C@H](O)C(=O)/C=C\C[C@H](C)OC2=O [Compound T-2] | 89.6% | 83.1% | 72.8% | relative amount of the ZIC5 protein ([amount of ZIC5 protein]/[amount of GAPDH protein]) (ZIC5 protein [1]): reduced depending on the concentrations; apoptosis induction [2]: did not induce apoptosis; apoptosis induction [3]: induced apoptosis; apoptosis induction [4]: induced apoptosis; apoptosis induction ([5]; Colo829 line): induced apoptosis; apoptosis induction ([5]; SKmel28 line): did not induce apoptosis; relative cell number in combination with vemurafenib (A375 cells): synergistically reduce the number of cells; apoptosis induction and suppression of cancer cell proliferation in ZIC5-overexpressing cells (Z5) (A375 melanoma cells): restored; remaining activity at 10 µM (ZIC5 protein [6]): 70.8% |
| C=C1C(=O)O[C@H]2C1CC/C(C)=C\CC[C@@]1(C)O[C@H]21 (stereo partly drawn) [Compound T-3] | 89.8% | 98.2% | 55.3% | – |
| C=C(C)[C@H]1O[C@H]2CC[C@@]3(C)[C@@](O)(CC[C@H]4C5OC(C)(C)[C@H]6C[C@@H]7C(=C)Cc8c(Cl)cc9[nH]c(c5c9c8[C@@]76O)[C@@]43C)[C@]23O[C@@H]3[C@H]1O (stereo partly drawn) [Compound T-4] | 111% | 96% | 75.4% | – |
| CCCCCCCCCCCCC/C=C/[C@H](O)[C@H](N)CO [Compound T-5] | 108% | 118% | 62.6% | – |
| CC(=O)O[C@H]1C[C@]2(O)[C@@H]3CC[C@@H]4C[C@@H](O)CC[C@]4(C)[C@H]3CC[C@]2(C)[C@H]1c1ccc(=O)oc1 [Compound T-7] | 103% | 76.4% | – | – |
| CC(=O)O[C@H]1[C@H]2O[C@@]23[C@@H]2CC[C@]4(O)C[C@@H](O)CC[C@]4(C)[C@H]2CC[C@]3(C)[C@H]1c1ccc(=O)oc1 [Compound T-8] | 88.2% | 90.8% | 70.5% | remaining activity at 10 µM (ZIC5 protein [6]): 44.7% |
| C[C@@H]1O[C@@H](O[C@@H]2C=C3CC[C@@H]4[C@H](CC[C@]5(C)[C@@H](c6ccc(=O)oc6)CC[C@]45O)[C@@]3(C)CC2)[C@H](O)[C@H](O)[C@H]1O [Compound T-10] | 70.2% | 42.1% | 50% | – |
| C[C@@H]1O[C@@H](O[C@H]2C[C@@H](O)[C@]3(CO)[C@H]4[C@H](O)C[C@]5(C)[C@@H](C6=CC(=O)OC6)CC[C@]5(O)[C@@H]4CC[C@]3(O)C2)[C@H](O)[C@H](O)[C@H]1O [Compound T-11] | 90.6% | 67.8% | – | – |
| C[C@@H]1O[C@@H](O[C@H]2CC[C@]3(C=O)[C@H]4CC[C@]5(C)[C@@H](c6ccc(=O)oc6)CC[C@]5(O)[C@@H]4CC[C@]3(O)C2)[C@H](O)[C@H](O)[C@H]1O[C@@H]1O[C@H](CO)[C@@H](O)[C@H](O)[C@H]1O [Compound T-12] | 76.8% | 72.5% | 57.1% | – |
| Nc1ccn([C@@H]2O[C@H](CO)[C@@H](O)C2(F)F)c(=O)n1 [gemcitabine] | – | – | – | apoptosis induction [7]: apoptosis was induced |

— patent US20240238241A1, “PHARMACEUTICAL COMPOSITION FOR TREATMENT OF PANCREATIC CANCER AND BILE DUCT CANCER” (JAPAN SCIENCE AND TECHNOLOGY AGENCY, priority 2021, published 2024)
